Measurements published in patent publication US20250171744A1, “METHODS OF REPROGRAMMING SOMATIC CELLS AND MATERIALS RELATED THERETO” (CITY OF HOPE, priority 2019, published 2025).

Test system: FPGS^ko cells
Experiment: Chemical complementation (nutrient supplementation) of FPGS mutants (FIG. 14)
Assay type: cell-based, human
Experimental: The growth medium was supplemented with 1 and 2× essential amino acids (EAAs), and cells were grown for […] (A2-A3). Additionally, to check the growth behavior of the mutant in a different basal medium, regular DMEM and IMDM with 1×NEAAs were tested. To rescue the phenotype of FPGS^ko, 5-CHO-THF (1 mM) with sodium hypoxanthine (10 mM) and thymidine (1.6 mM) mixture (HT; Thermo Fisher Scientific) was exogenously applied to IMDM, respectively (A5, A6), and compared with the FPGS^ko cells (A1) and WT cells […] grown with only solvent as a control. […] All the experiments were carried out in triplicate and cell proliferation was measured using a Cellometer. The number of cells for each cell line is compared with the number of colonies for parental 293T cells. Error bars indicate means±SE (n=4). *P<0.05, **P<0.001.
Chemical complementation assays of FPGS mutants: Cells were maintained as monolayers in DMEM with Gluta-Max (Corning) supplemented with 10% FBS at 37° C. in a 5% CO2 atmosphere. To supplement the growth medium with amino acids, 1× and 2× doses of essential amino acids (Thermo Fisher Scientific) were added in the medium and the cells were grown as previously described for 5 days. […] All the experiments were carried out in triplicate, and cell proliferation was measured using a Cellometer Auto T4 Counting Chamber (Nexcelom Bioscience, Lawrence, MA, USA). […]

**Q.** For `Nc1nc2c(c(=O)[nH]1)N(C=O)[C@@H](CNc1ccc(C(=O)N[C@@H](CCC(=O)O)C(=O)O)cc1)CN2` [5-CHO-THF, 6S-5-formyl-5,6,7,8-tetrahydrofolic acid], which “cell growth of FPGS^ko mutant” value (IMDM supplemented with 1 mM 5-CHO-THF and 1×NEAAs) is on record?
**A.** The value was “substantial increases in cell growth”.

**Q.** And the “growth rate of FPGS^ko mutant” value (IMDM with 1 mM 5-CHO-THF, 1×NEAAs, hypoxanthine (10 mM) and thymidine (1.6 mM))?
**A.** The value was “almost full restoration of growth rate”.
